From US4371537A, “Sulfur-substituted phenoxypyridines having antiviral activity” (The Dow Chemical Company, priority 1981, dated 1983)
Values after ≈ are worked out from the molar mass of the structure shown. Read-outs that look alike come from different tables or passages of the source.

Tests used:
[1] = test system: rhinovirus type 1A (RV-1A); experiment: Tissue culture testing, rhinovirus type 1A in HeLa cells; format: cell-based; conditions: Enterovirus, 48 and 72 hours, NA = not active at the standard test conditions, read-out: RV-1A: lowest concentration of the compound necessary to cause a 50 percent reduction in cytopathic effect
Method: (§1) Monolayered HeLa cells in 16 millimeter (mm) tissue culture dishes were treated with 1 ml of culture medium (Eagles medium supplemented with fetal calf serum) containing subject compound at an appropriate concentration or containing no compound at all. Culture media such as those described herein are more fully described in standard texts, as for example, Kuchler's Biochemical Methods in Cell Culture and Virology, Dowden, Hutchinson and Ross, Inc., Stroudsberg, PA (1977). Following treatment, cells were challenged with 0.05 ml of rhinovirus type 1A (RV-1A), rhinovirus type 2 (RV-2) or Coxsackie A21 virus (Cox A21) in culture medium. Some of the compounds were also tested against rhinovirus type 5 (RV-5), rhinovirus type 8 (RV-8) or rhinovirus type 64 (RV-64). Cell controls received no viruses.
(§2) ^2 Lowest concentration of the compound (μg/ml) necessary to cause

[2] = Cytotoxicity in tissue culture testing (HeLa monolayers); format: cell-based; conditions: human, HeLa cells
Method: as §1
^1 Cytotoxicity figures represent the concentration of the compound, […]

[3] = test system: Coxsackie A21 virus; experiment: Continuous Oral Feeding test in mice challenged IP with Coxsackie A21 virus; format: in vivo; conditions: for Continuous Oral Feeding X^2 (chi-square, deaths vs control): 0.06 % in diet, 240 h
Method: Some of the compounds were also tested in animals utilizing the following procedure, hereainafter referred to as the "Continuous Oral Feeding" test. Coxsackie A21 virus grown on HeLa cells was administered at a concentration that produces 80 to 100% deaths in mice weighing 8 to 12 grams within 10 days, when the mice are injected (IP) with 0.2 ml of virus preparation. Mice were placed on diets containing test compound dispersed in plain commercially available rodent mash chow at a concentration of 0.06% (weight percent) on day 0. On day 1 the mice were challenged with the virus preparation, 0.2 ml/mouse, (IP). Deaths in both control and experimental groups were recorded for the 10 days and the results analyzed by a chi-square (.chi.^2) test. Chi-square values greater than 3.84 indicate the compound is active (95% confidence level).

[4] = test system: Coxsackie A21 virus (Cox A21); experiment: Tissue culture testing, Coxsackie A21 virus in HeLa cells; format: cell-based; conditions: 48 and 72 hours, NA = not active at the standard test conditions, read-out: Cox A21: lowest concentration of the compound necessary to cause a 50 percent reduction in cytopathic effect
Method: as §1, §2

[5] = test system: rhinovirus type 2 (RV-2); experiment: Tissue culture testing, rhinovirus type 2 in HeLa cells; format: cell-based; conditions: Enterovirus, 48 and 72 hours, NA = not active at the standard test conditions, read-out: RV-2: lowest concentration of the compound necessary to cause a 50 percent reduction in cytopathic effect
Method: as §1, §2

[6] = observed at 48 and 72 hours post-treatment, read-out: Cytotoxicity: concentration of the compound found to be toxic to the cell

Row | EC50 [1] [µg/mL] | EC50 [4] [µg/mL] | EC50 [5] [µg/mL] | SMILES | MCC [2, 6] [µg/mL] | Continuous Oral Feeding X^2 (chi-square, deaths vs control) [3] | Continuous Oral Feeding: toxicity of the test compound at the indicated dosage ([3]; 0.06% in diet, "toxic" = significantly toxic at the indicated dosage) | MCC ([2]; GI = growth inhibition, read-out: Cytotoxicity: concentration at which the compound inhibited the growth of the tissue culture (GI)) [µg/mL]
1 | 25 (≈ 62.8 µM) | 12.5 (≈ 31.4 µM) | 25 (≈ 62.8 µM) | CCCCCCS(=O)(=O)c1ccc(Oc2ccc(Br)cc2)nc1 [Example 53, 2-(4-bromophenoxy)-5-(n-hexylsulfonyl)pyridine] | > 50 | 2.925 | – | –
2 | 6.25 (≈ 19.6 µM) | 3.12 (≈ 9.82 µM) | 12.5 (≈ 39.3 µM) | CS(=O)(=O)c1cncc(Oc2ccc(Cl)c(Cl)c2)c1 [Example 77, 3-(3,4-dichlorophenoxy)-5-(methylsulfonyl)pyridine] | > 50 | – | – | –
3 | 50 (≈ 157 µM) | 25 (≈ 78.3 µM) | 50 (≈ 157 µM) | CC(=O)c1ccc(Oc2ccc(S(=O)(=O)C(C)C)cn2)cc1 [Example 52, 1-(4-((5-((1-methylethyl)sulfonyl)-2-pyridinyl)oxy)phenyl)ethanone] | ≥ 50 | 1.140 | – | –
4 | 25 (≈ 58.2 µM) | < 3.12 | – | O=C(c1ccccc1)c1ccc(Oc2ccc(S(=O)(=O)Cc3ccccc3)cn2)cc1 [Example 62, phenyl(4-((5-((phenylmethyl)sulfonyl)-2-pyridinyl)oxy)phenyl)methanone] | – | 0.066 | – | 50
5 | 25 (≈ 64.7 µM) | 25 (≈ 64.7 µM) | 12.5 (≈ 32.4 µM) | O=S(=O)(c1ccc(Oc2ccc(Cl)c(Cl)c2)nc1)C1CCCCC1 [Example 58, 2-(3,4-dichlorophenoxy)-5-(cyclohexylsulfonyl)pyridine] | 50 | – | – | –
6 | 25 (≈ 63.1 µM) | 6.25 (≈ 15.8 µM) | 25 (≈ 63.1 µM) | O=S(=O)(c1ccc(Oc2ccc(Br)cc2)nc1)C1CCCCC1 [Example 57, 2-(4-bromophenoxy)-5-(cyclohexylsulfonyl)pyridine] | 50 | – | – | –
7 | – | – | 25 (≈ 81.3 µM) | CCS(=O)(=O)c1ccc(Oc2ccc3c(c2)OCO3)nc1 [Example 41, 5-(ethylsulfonyl)-2-(3,4-methylenedioxyphenoxy)pyridine] | ≥ 50 | – | – | –
8 | 12.5 (≈ 41.4 µM) | 25 (≈ 82.7 µM) | 6.25 (≈ 20.7 µM) | C[S+]([O-])c1cncc(Oc2ccc(Cl)c(Cl)c2)c1 (stereo not drawn) [Example 76, 3-(3,4-dichlorophenoxy)-5-(methylsulfinyl)pyridine] | 25 | – | – | –
9 | 25 (≈ 85.8 µM) | – | 12.5 (≈ 42.9 µM) | CC(=O)c1ccc(Oc2ccc(S(C)(=O)=O)cn2)cc1 [Example 34, 1-(4-((5-(methylsulfonyl)-2-pyridinyl)oxy)phenyl)ethanone] | > 50 | 1.727 | – | –
10 | ~12.5 (≈ 34.8 µM) | 3.12 (≈ 8.69 µM) | ~12.5 (≈ 34.8 µM) | CC(=O)c1ccc(Oc2ccc(S(=O)(=O)C3CCCCC3)cn2)cc1 [Example 56, 1-(4-((5-(cyclohexylsulfonyl)-2-pyridinyl)oxy)phenyl)ethanone] | 12.5 | 0.019 | – | –
11 | 25 (≈ 78.6 µM) | 50 (≈ 157 µM) | 50 (≈ 157 µM) | CS(=O)(=O)c1cccnc1Oc1ccc(Cl)c(Cl)c1 [Example 71, 2-(3,4-dichlorophenoxy)-3-(methylsulfonyl)pyridine] | 50 | – | – | –
12 | 25 (≈ 75.3 µM) | – | 25 (≈ 75.3 µM) | CCS(=O)(=O)c1cccnc1Oc1ccc(Cl)c(Cl)c1 [Example 73, 2-(3,4-dichlorophenoxy)-3-(ethylsulfonyl)pyridine] | 25 | – | – | –

Row | SMILES | EC50 [1] [µg/mL] | EC50 [4] [µg/mL] | EC50 [5] [µg/mL] | MCC [2, 6] [µg/mL] | Continuous Oral Feeding X^2 (chi-square, deaths vs control) [3] | Continuous Oral Feeding: toxicity of the test compound at the indicated dosage ([3]; 0.06% in diet, "toxic" = significantly toxic at the indicated dosage) | MCC ([2]; GI = growth inhibition, read-out: Cytotoxicity: concentration at which the compound inhibited the growth of the tissue culture (GI)) [µg/mL]
13 | CS(=O)(=O)c1cccc(Oc2ccc(Cl)c(Cl)c2)n1 [Example 67, 2-(3,4-dichlorophenoxy)-6-(methylsulfonyl)pyridine] | 3.12 (≈ 9.82 µM) | ~50 (≈ 157 µM) | 12.5 (≈ 39.3 µM) | 50 | 7.39 | toxic | –
